In US11779630B2, “Peptides and methods of using the same” (SERPIN PHARMA, LLC, priority 2020, dated 2023):

What was measured:
[1] = tested on: NFκB; experiment: NFκB reporter assay (THP1-XBlue-MD2-CD14 cells) stimulated with LPS, SEAP readout; conditions: peptide 50 μg/ml, LPS 5 ng/ml, overnight (FIG. 1)
[2] = tested on: mice, lethal endotoxemia; experiment: Mouse model of lethal endotoxemia (LPS 15 mg/kg); assay type: in vivo
Protocol: FIG. 27A: The mice were treated with SP16 or vehicle and challenged with a lethal dose of LPS (15 mg/kg) and assessed for survival over 72 hours.

Substance | NFκB activity (NFκB inducible SEAP in supernatant) [1] | survival between 30 and 42 hours [2] [%] | survival by 72-hrs ([2]; p<0.001 vs. vehicle) [%]
RRRVKFNKPFVFLMIEQNTKRRR (RRRVKFNKPFVFLMIEQNTKRRR; peptide derivative) [SP21] | NFkB inhibition increased as well relative to SP16 | – | –
R R R V K F N K P F V F L M R R R (RRRVKFNKPFVFLMRRR; peptide derivative) [SP22] | NFκB activity was significantly reduced | – | –
R R R V R F N R P F L R R R (RRRVRFNRPFLRRR; peptide derivative) [SP32] | could not be restored with the Poly arginine flanks | – | –
V K F N K P F V F L M (VKFNKPFVFLM; listed as Homo sapiens) [SP20] | did not have an inhibitory effect | – | –
V K F N K P F V F L M I E Q N T K (VKFNKPFVFLMIEQNTK; listed as Homo sapiens) [SP16] | capable of reducing NFκB activity | 100 | 60
V R F N R P F L (VRFNRPFL; peptide derivative) [SP31] | anti-inflammatory activity of the peptide was lost | – | –
